Results published in ChEMBL document CHEMBL3886319, “Amidopyrazole inhibitors of interleukin receptor-associated kinases” (2015).

These molecules were tested against T1, Interleukin-1 receptor-associated kinase 4 (Homo sapiens, UniProt Q9NWZ3) (assay: Kinase Assay: The kinase activity of IRAK-4 is determined by its ability to catalyze the phosphorylation of a fluorescent polypeptide substrate. The extent of phosphorylation is measured using the IMAP technology (Molecular Devices) where the phosphorylated fluorescent substrate binds to the large M(III)-based nanoparticles which reduces the rotational speed of the substrate and thus increases its fluorescent polarization (FP). 20 μl reaction mixture contains 10 mM TriHCl, pH 7.2, 0.5 nM GST tagged IRAK-4 (SignalChem), 100 nM fluorescent peptide substrate (RP7030, Molecular Devices), 100 μM ATP, 1 mM DTT, 1 mM MgCl2, and 0.01% Tween 20. The reaction is initiated by the addition of ATP. After incubation for 30 minutes at 25° C., 60 μl of Progressive IMAP Reagent (Molecular Devices) is added to stop the reaction. Change in RP7030's FP is determined by a FP reader (Analyst HT, LH, BioSystems).).
T1 sequence (Q9NWZ3 whole entry): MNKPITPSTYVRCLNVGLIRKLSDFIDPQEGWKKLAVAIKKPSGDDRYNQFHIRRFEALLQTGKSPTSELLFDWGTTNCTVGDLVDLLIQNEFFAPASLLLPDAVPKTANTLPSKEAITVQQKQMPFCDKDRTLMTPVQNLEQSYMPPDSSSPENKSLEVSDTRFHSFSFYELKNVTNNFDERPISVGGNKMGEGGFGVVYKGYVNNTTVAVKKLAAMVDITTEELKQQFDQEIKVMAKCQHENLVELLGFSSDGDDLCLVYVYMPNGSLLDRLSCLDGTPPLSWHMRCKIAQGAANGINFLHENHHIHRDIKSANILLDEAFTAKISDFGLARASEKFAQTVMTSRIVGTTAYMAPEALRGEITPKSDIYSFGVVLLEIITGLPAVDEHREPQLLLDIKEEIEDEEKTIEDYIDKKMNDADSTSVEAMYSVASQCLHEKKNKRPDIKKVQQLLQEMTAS

SMILES	IC50
CS(=O)(=O)N1CCC(c2cc(NC(=O)c3cnn4cccnc34)n(-c3ccccc3)n2)CC1	< 1 µM
Cc1ccc(-n2nc(C3CCCN(Cc4cn[nH]c4)C3)cc2NC(=O)c2cnn3cccnc23)cc1 (configuration not stated)	< 1 µM
Cc1ccc(-n2nc(C3CCN(S(C)(=O)=O)C3)cc2NC(=O)c2cnn3cccnc23)cc1 (configuration not stated)	< 1 µM
COc1ccc(CN2CCC(c3cc(NC(=O)c4cnn5cccnc45)n(-c4ccc(C)cc4)n3)CC2)cn1	< 1 µM
Cc1ccc(-n2nc(C3CCN(S(=O)(=O)C4CC4)CC3)cc2NC(=O)c2cnn3cccnc23)nc1	< 0.1 µM
CS(=O)(=O)N1CCC(c2cc(NC(=O)c3cnn4cccnc34)n(-c3ccc(CN)cn3)n2)CC1	< 0.1 µM
Cc1ccc(-n2nc(-c3ccnc(CN4CCCCC4)c3)cc2NC(=O)c2cnn3cccnc23)cc1	< 0.1 µM
Cc1ccc(-n2nc(C3CCN(C(C)C(=O)N4CCCC4)CC3)cc2NC(=O)c2cnn3cccnc23)cc1 (configuration not stated)	< 0.1 µM
O=C(Nc1cc(C2CCN(C3CCC3)CC2)nn1-c1ccc(C2CC2)cn1)c1cnn2cccnc12	< 0.1 µM
CCOC(=O)N1CCC(N2CCC(c3cc(NC(=O)c4cnn5cccnc45)n(-c4ccc(C)cc4)n3)CC2)CC1	< 0.1 µM
Cc1ccc(-n2nc(C3CCN(C(C)C(C)C)CC3)cc2NC(=O)c2cnn3cccnc23)cc1 (configuration not stated)	< 1 µM
Cc1ccc(-n2nc(C3CCN(C)CC3)cc2NC(=O)c2cnn3cccnc23)c(F)c1	< 1 µM
CS(=O)(=O)N1CCC(c2cc(NC(=O)c3cnn4cccnc34)n(CCN)n2)CC1	< 1 µM
COc1ccc(-n2nc(C3CCNCC3)cc2NC(=O)c2cnn3cc(C4CC4)cnc23)cc1	< 1 µM
C#Cc1cnc2c(C(=O)Nc3cc(C4CCN(S(C)(=O)=O)CC4)nn3-c3ccc(C)cn3)cnn2c1	< 0.1 µM
Cc1ccc(-n2nc(C3CCN(CC(C)C)CC3)cc2NC(=O)c2cnn3cccnc23)nc1	< 0.1 µM
CNC(C)c1ccc(-n2nc(C3CCN(S(C)(=O)=O)CC3)cc2NC(=O)c2cnn3cccnc23)nc1 (configuration not stated)	< 1 µM
Cc1ccc(-n2nc(C3CCCN(Cc4ccc(S(C)(=O)=O)cc4)C3)cc2NC(=O)c2cnn3cccnc23)cc1 (configuration not stated)	< 0.1 µM
Cc1ccc(-n2nc(C3CCCN(Cc4ccn[nH]4)C3)cc2NC(=O)c2cnn3cccnc23)cc1 (configuration not stated)	< 0.1 µM
Cc1ccc(-n2nc(C3CCCN(CC4CCOC4)C3)cc2NC(=O)c2cnn3cccnc23)cc1 (configuration not stated)	< 1 µM
COc1ccc(-n2nc(C3CCN(S(C)(=O)=O)CC3)cc2NC(=O)c2cnn3cccnc23)nc1	< 1 µM
Cc1cnc(-n2nc(C3CCNCC3)cc2NC(=O)c2cnn3cccnc23)nc1	> 1 µM
Cc1ccc(-n2nc(C3CCCN(Cc4ncco4)C3)cc2NC(=O)c2cnn3cccnc23)cc1 (configuration not stated)	< 1 µM
COc1ccc(CN2CCCC(c3cc(NC(=O)c4cnn5cccnc45)n(-c4ccc(C)cc4)n3)C2)cn1 (configuration not stated)	< 1 µM

SMILES	IC50
CS(=O)(=O)N1CCC(c2cc(NC(=O)c3cnn4cccnc34)n(-c3ccc(CO)cn3)n2)CC1	< 0.1 µM
Cc1ccc(-n2nc(C3CCN(S(C)(=O)=O)CC3)cc2NC(=O)c2cnn3cc(Br)cnc23)cc1	< 1 µM
COc1ncc(CN2CCCC(c3cc(NC(=O)c4cnn5cccnc45)n(-c4ccc(C)cc4)n3)C2)cn1 (configuration not stated)	< 1 µM
Cc1ccc(-n2nc(C3CCCN(Cc4cccnc4)C3)cc2NC(=O)c2cnn3cccnc23)cc1 (configuration not stated)	< 1 µM
Cc1ccc(-n2nc(C3CCCN(Cc4ccncc4)C3)cc2NC(=O)c2cnn3cccnc23)cc1 (configuration not stated)	< 1 µM
Cc1ccc(-n2nc(C3CCN(C4CCC(C(F)(F)F)CC4)CC3)cc2NC(=O)c2cnn3cccnc23)cc1 (configuration not stated)	< 0.1 µM
Cc1ccc(-n2nc(C3CCN(S(C)(=O)=O)CC3)cc2NC(=O)c2cnn3cc(C)cnc23)cc1	< 1 µM
Cc1ccc(-n2nc(C3CCCN(Cc4cnc(N(C)C)s4)C3)cc2NC(=O)c2cnn3cccnc23)cc1 (configuration not stated)	< 1 µM
Cc1ccc(-n2nc(C3CCN(S(C)(=O)=O)CC3)cc2NC(=O)c2cnn3cc(Br)cnc23)nc1	< 0.1 µM
Cc1ccc(-n2nc(C3CCCN(Cc4cccc5c4CNC5=O)C3)cc2NC(=O)c2cnn3cccnc23)cc1 (configuration not stated)	< 0.1 µM
Cc1ccc(-n2nc(C3CCN(C4CNC4)CC3)cc2NC(=O)c2cnn3cccnc23)cc1	< 1 µM
CCn1nccc1CN1CCCC(c2cc(NC(=O)c3cnn4cccnc34)n(-c3ccc(C)cc3)n2)C1 (configuration not stated)	< 1 µM
Cc1ccc(-n2nc(C3CCN(C(C)C(=O)N4CCCCC4)CC3)cc2NC(=O)c2cnn3cccnc23)cc1 (configuration not stated)	< 1 µM
Cc1ccc(-n2nc(-c3cncc(N4CCN(C)CC4)c3)cc2NC(=O)c2cnn3cccnc23)cc1	< 1 µM
Cc1ccc(-n2nc(C3CCN(C(C)c4cccc(F)n4)CC3)cc2NC(=O)c2cnn3cccnc23)cc1 (configuration not stated)	< 1 µM
Cc1ccc(-n2nc(C3CCCN(Cc4cccnc4F)C3)cc2NC(=O)c2cnn3cccnc23)cc1 (configuration not stated)	< 1 µM
Cc1cnc(-n2nc(C3CCN(S(C)(=O)=O)CC3)cc2NC(=O)c2cnn3cccnc23)cn1	> 1 µM
Cc1ccc(-n2nc(C3CCN(C4CCN(C5CC5)CC4)CC3)cc2NC(=O)c2cnn3cccnc23)cc1	< 1 µM
Cc1ccc(-n2nc(C3CCCN(Cc4ccccn4)C3)cc2NC(=O)c2cnn3cccnc23)cc1 (configuration not stated)	< 1 µM
Cc1ccc(-n2nc(-c3ccc(S(=O)(=O)N4CCOCC4)cc3)cc2NC(=O)c2cnn3cccnc23)cc1	< 0.1 µM
CC(=O)N1CCC(N2CCC(c3cc(NC(=O)c4cnn5cccnc45)n(-c4ccc(C)cc4)n3)CC2)CC1	< 0.1 µM
Cc1ccc(-n2nc(C3CCCN(Cc4ccc(F)cn4)C3)cc2NC(=O)c2cnn3cccnc23)cc1 (configuration not stated)	< 1 µM
Cc1ccc(-n2nc(C3CCCN(Cc4ccc5c(c4)C(=O)NC5)C3)cc2NC(=O)c2cnn3cccnc23)cc1 (configuration not stated)	< 1 µM
